In patent publication US20260090980A1, “COSMETIC COMPOSITIONS AND METHODS OF USING THE SAME” (MARY KAY INC., priority 2022, published 2026):

System: lipolysis
Experiment: In-vitro activity: lipolysis
Assay type: cell-based
Conditions: 3 %

## Cn1c(=O)c2c(ncn2C)n(C)c1=O [Caffeine]
  Activity: lipolysis: Lipolysis
